Data: ChEMBL document CHEMBL3112501, “Design, synthesis and preliminary bioactivity studies of 1,2-dihydrobenzo[d]isothiazol-3-one-1,1-dioxide hydroxamic acid derivatives as novel histone deacetylase inhibitors” (Bioorg Med Chem, 2014)

Biological target: Histone deacetylase (HDAC1 and HDAC2) (Homo sapiens, UniProt Q13547+Q92769)
Assay: Inhibition of HDAC1/2 in human HeLa cell extracts using acetylated histone peptide as substrate after 30 mins
Type: protein assay

## O=C(CCCCCN1C(=O)c2ccc(NC(=O)Cc3ccccc3)cc2S1(=O)=O)NO
  IC50: 244 nM
